Among the data in DBAASP are MIC values, retold here.

The MIC is the lowest concentration found to suppress growth.

Test systems include Escherichia coli SBS 363; Candida albicans MDM8; Micrococcus luteus A270; Escherichia coli MG1655; Shigella sonnei DSM 5570; Escherichia coli D31; Proteus mirabilis; Aspergillus niger; Staphylococcus simulans; Staphylococcus sciuri; Beauveria bassiana; Microsporum canis; Escherichia coli K-12.
Common to all, as to test: ≥ marks a high value that may be exact or a test limit, other limits are often not marked, values filed in µg/mL are converted to µM
For experiment [1], the system named is Bacillus megaterium ATCC 10778.
In experiment [2] the test system is Pseudomonas aeruginosa NCIB 10421.
For experiment [3], the system named is Bacillus subtilis ATCC 6633.
Experiment [4] relates to Serratia marcescens ATCC 4112.
Experiment [5] deals with Candida tropicalis IOC 4560.
The test system of experiment [6] is Enterobacter cloacae beta-12.
The test system of experiment [7] is Staphylococcus aureus ATCC 29213.
Experiment [8] relates to Pseudomonas aeruginosa PA7.
Experiment [9] deals with Pseudomonas aeruginosa PAO1.
For experiment [10], the system named is Staphylococcus aureus NCTC 8325.
Experiment [11] has as its system Acinetobacter baumannii Al1852-ΔLpxD.
Experiment [12] concerns Klebsiella pneumoniae DSM 789.
Experiment [13] concerns Salmonella enterica DSM 17058.
In experiment [14] the test system is Pseudomonas aeruginosa DSM 1117.
For experiment [15], the system named is Acinetobacter baumannii AL1851-ΔLpxA.
The subject of experiment [16] is Acinetobacter baumannii ATCC 19606.
In experiment [17] the test system is Staphylococcus epidermidis DSM 28319.
Experiment [18] deals with Citrobacter freundii DSM 30029.
Experiment [19] deals with Escherichia coli DSM 1103.
For experiment [20], the system named is Staphylococcus aureus DSM 11729.
Experiment [21] deals with Salmonella enterica subsp. enterica serovar Typhimurium ATCC 14028.
For experiment [22], the system named is Trichophyton mentagrophytes.
The test system of experiment [23] is Salmonella enterica subsp. arizonae ATCC 13314.
Experiment [24] has as its system Staphylococcus haemolyticus.
Experiment [25] concerns Alcaligenes faecalis ATCC 8750.
In experiment [26] the test system is Pseudomonas aeruginosa ATCC 27853.
Experiment [27] deals with Staphylococcus pseudintermedius.
Experiment [28] has as its system Microsporum canis MW768151.
Experiment [29] has as its system Staphylococcus pseudintermedius MW767056.
Experiment [30] has as its system Staphylococcus cohnii MW767053.
Experiment [31] has as its system Saccharomyces cerevisiae PM340.
Experiment [32] concerns Pseudomonas aeruginosa PA330.
In experiment [33] the test system is Pseudomonas aeruginosa PA214.

≈ marks a conversion by molar mass, not a printed value. Bounds are passed on as bounds.

In the case of `CC[C@H](C)[C@H](NC(=O)CNC(=O)[C@H](CCC(=O)O)NC(=O)[C@H](Cc1c[nH]c2ccccc12)NC(=O)[C@@H](NC(=O)[C@H](CCCCN)NC(=O)CNC(=O)[C@H](CC(C)C)NC(=O)[C@@H](N)Cc1c[nH]c2ccccc12)[C@@H](C)CC)C(=O)N[C@@H](CCCCN)C(=O)N[C@@H](CO)C(=O)N[C@@H](CC(C)C)C(=O)N[C@@H](Cc1ccccc1)C(N)=O` [WLGKIWEGIKSLF], the minimum inhibitory concentration (MIC) in experiment [1] was found to be 0.78 µM (≈ 1.23 µg/mL); in the experiment on Escherichia coli SBS 363, 1.56 µM (≈ 2.46 µg/mL); in [2] it was 12.5 µM (≈ 19.7 µg/mL); in [3], 0.78 µM (≈ 1.23 µg/mL); against Candida albicans MDM8, 3.13 µM (≈ 4.93 µg/mL); in experiment [4], 0.78 µM (≈ 1.23 µg/mL). Besides, the minimal inhibitory concentration (MIC) in experiment [5] turned out to be 1.56 µM (≈ 2.46 µg/mL); in experiment [6] it was 12.5 µM (≈ 19.7 µg/mL); in experiment [7] it was 1.6 µM (≈ 2.52 µg/mL); against Micrococcus luteus A270, 0.78 µM (≈ 1.23 µg/mL).
As to `CC[C@H](C)[C@H](N)C(=O)N[C@@H](CCCCN)C(=O)N[C@H](C(=O)N1CCC[C@H]1C(=O)N[C@@H](C)C(=O)N[C@H](C(=O)N[C@H](C(=O)N[C@@H](CCCCN)C(=O)N[C@@H](CC(=O)O)C(=O)N[C@H](C(=O)N[C@@H](CCC(N)=O)C(=O)N[C@@H](CCCCN)C(=O)N[C@@H](CCCCN)C(=O)N[C@H](C(=O)N[C@@H](C)C(=O)N[C@@H](CCCCN)C(=O)NCC(=O)N[C@H](C(=O)N[C@H](C(=O)N[C@@H](CO)C(=O)N[C@H](C(=O)N[C@H](C(=O)N[C@@H](C)C(=O)N[C@@H](CC(=O)O)C(=O)N[C@@H](C)C(=O)N[C@@H](CC(C)C)C(=O)N[C@@H](CO)C(=O)N[C@@H](CCCCN)C(=O)N[C@@H](CO)C(=O)O)C(C)C)[C@@H](C)O)[C@@H](C)CC)C(C)C)C(C)C)[C@@H](C)O)C(C)C)[C@@H](C)CC)C(C)C` [IKVPAIVKDTQKKVAKGVISTVADALSKS], the MIC is at least 512 µM in [8], at least 512 µM with Escherichia coli MG1655, over 512 µM in experiment [9] and at least 512 µM in [10].
With `CC[C@H](C)[C@H](NC(=O)[C@H](CC(=O)O)NC(=O)[C@H](Cc1c[nH]c2ccccc12)NC(=O)[C@H](CCCCN)NC(=O)[C@@H]1CCCN1C(=O)[C@H](CC(C)C)NC(=O)[C@H](CCSC)NC(=O)[C@H](Cc1ccc(O)cc1)NC(=O)[C@H](CC(C)C)NC(=O)[C@H](CC(N)=O)NC(=O)[C@@H](NC(=O)CN)[C@@H](C)O)C(=O)N1CCC[C@H]1C(N)=O` [GTNLYMLPKWDIP], the MIC was at least 32 µM in experiment [11]; at least 32 µM in experiment [12]; 16 µM (≈ 24.7 µg/mL) in experiment [13]; 1 µM (≈ 1.55 µg/mL) in [14]; 16 µM (≈ 24.7 µg/mL) in experiment [15]; 32 µM (≈ 49.5 µg/mL) in experiment [16]. Besides, the MIC stood at 0.5 µM (≈ 0.773 µg/mL) in experiment [17]; 4 µM (≈ 6.19 µg/mL) in [18]; 8 µM (≈ 12.4 µg/mL) in experiment [19]; 2 µM (≈ 3.09 µg/mL) in the experiment on Shigella sonnei DSM 5570; 16 µM (≈ 24.7 µg/mL) in experiment [20].
`CC(C)[C@H](N)C(=O)N[C@@H](C)C(=O)N[C@@H](CCC(=O)O)C(=O)N[C@@H](C)C(=O)N[C@@H](CCCN=C(N)N)C(=O)N[C@@H](CCC(N)=O)C(=O)NCC(=O)N[C@@H](CO)C(=O)N[C@@H](Cc1ccccc1)C(=O)N[C@@H](CO)C(=O)N[C@@H](Cc1ccc(O)cc1)C(=O)O` [VAEARQGSFSY]: the MIC in [21] is 12.5 µM (≈ 15.2 µg/mL); in experiment [22], 0.412 µM (≈ 0.5 µg/mL); in experiment [1], 12.5 µM (≈ 15.2 µg/mL); in the experiment with Escherichia coli SBS 363, 25 µM (≈ 30.3 µg/mL); in experiment [23], 25 µM (≈ 30.3 µg/mL); in experiment [24], at least 211 µM. In addition, the MIC was 25 µM (≈ 30.3 µg/mL) in experiment [3]; 12.5 µM (≈ 15.2 µg/mL) in experiment [25]; 12.5 µM (≈ 15.2 µg/mL) against Escherichia coli D31; 25 µM (≈ 30.3 µg/mL) in the experiment with Candida albicans MDM8; at least 211 µM against Proteus mirabilis; 12.5 µM (≈ 15.2 µg/mL) in experiment [26]. The MIC is 25 µM (≈ 30.3 µg/mL) against Aspergillus niger; at least 105 µM against Staphylococcus simulans; at least 105 µM in experiment [27]; 0.412 µM (≈ 0.5 µg/mL) in experiment [28]; at least 105 µM in experiment [29]; at least 211 µM in experiment [30]. The MIC is at least 211 µM in the experiment with Staphylococcus sciuri; 25 µM (≈ 30.3 µg/mL) in experiment [31]; 25 µM (≈ 30.3 µg/mL) in experiment [4]; 25 µM (≈ 30.3 µg/mL) in experiment [5]; 25 µM (≈ 30.3 µg/mL) in experiment [6]; 25 µM (≈ 30.3 µg/mL) in the experiment with Beauveria bassiana. In addition, the results for the MIC (in experiment [7]; against Microsporum canis; in the experiment on Micrococcus luteus A270) were 6.24 µM (≈ 7.58 µg/mL), 0.824 µM (≈ 1 µg/mL) and 6.24 µM (≈ 7.58 µg/mL), respectively.
For `CC(C)C[C@H](NC(=O)[C@H](C)NC(=O)[C@H](CCCCN)NC(=O)[C@H](Cc1ccccc1)NC(=O)[C@H](CC(C)C)NC(=O)[C@H](CCCCN)NC(=O)[C@H](C)NC(=O)[C@H](Cc1c[nH]c2ccccc12)NC(=O)[C@H](C)NC(=O)[C@H](CCCCN)NC(=O)[C@H](CC(C)C)NC(=O)[C@H](Cc1ccccc1)NC(=O)[C@H](CCCCN)NC(=O)[C@H](CCCCN)NC(=O)[C@H](CC(C)C)NC(=O)[C@H](C)NC(=O)[C@@H](N)CCCCN)C(N)=O` [KALKKFLKAWAKLFKAL], the MIC in [32] turned out to be 6.3 µM (≈ 12.6 µg/mL); in [33] it was 3.1 µM (≈ 6.21 µg/mL); in [9], 3.1 µM (≈ 6.21 µg/mL); in the experiment on Escherichia coli K-12, 1.6 µM (≈ 3.21 µg/mL).
